Measurements published in ChEMBL document CHEMBL1124945, “1-(substituted-benzyl)imidazole-2(3H)-thione inhibitors of dopamine beta-hydroxylase” (J Med Chem, 1990).

Molecular target: T1, Dopamine beta-hydroxylase (Rattus norvegicus, UniProt Q05754)
T1 sequence (Q05754 whole entry): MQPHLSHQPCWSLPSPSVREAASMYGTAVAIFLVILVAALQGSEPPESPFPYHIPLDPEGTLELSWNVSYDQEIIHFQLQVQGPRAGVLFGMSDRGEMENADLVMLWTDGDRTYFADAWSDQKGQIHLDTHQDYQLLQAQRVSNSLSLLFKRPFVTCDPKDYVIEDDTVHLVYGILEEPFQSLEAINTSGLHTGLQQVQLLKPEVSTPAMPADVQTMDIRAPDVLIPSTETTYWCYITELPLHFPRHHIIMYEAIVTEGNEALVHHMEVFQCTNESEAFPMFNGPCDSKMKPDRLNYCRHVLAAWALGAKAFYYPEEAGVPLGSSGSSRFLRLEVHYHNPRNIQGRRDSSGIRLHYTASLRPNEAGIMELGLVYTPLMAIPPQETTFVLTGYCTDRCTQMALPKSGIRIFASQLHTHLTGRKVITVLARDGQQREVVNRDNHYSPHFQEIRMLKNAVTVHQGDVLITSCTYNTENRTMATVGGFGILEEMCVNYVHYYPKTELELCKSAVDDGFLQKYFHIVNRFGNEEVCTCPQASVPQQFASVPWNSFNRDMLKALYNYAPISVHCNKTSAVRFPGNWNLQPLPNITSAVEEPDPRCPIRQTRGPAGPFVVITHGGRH
Assay: Inhibition of dopamine beta-hydroxylase (DbetaH) […]

Row | IC50 [µM] | Structure (SMILES)
1 | 36.3 | COc1c(F)cc(Cn2cc[nH]c2=S)cc1F
2 | 83.2 | COc1ccc(Cn2cc[nH]c2=S)cc1Br
3 | 148 | Cc1ccc(Cn2cc[nH]c2=S)cc1
4 | 2 | Oc1ccc(Cn2cc[nH]c2=S)cc1Cl
5 | 30.9 | O=[N+]([O-])c1cc(Cn2cc[nH]c2=S)ccc1O
6 | 501 | COc1cccc(OC)c1Cn1cc[nH]c1=S
7 | 1.51 | Oc1ccc(Cn2cc[nH]c2=S)cc1F
8 | 74.1 | COc1ccccc1Cn1cc[nH]c1=S
9 | 49 | Cc1cc(Cn2cc[nH]c2=S)ccc1O
10 | 17 | S=c1[nH]ccn1Cc1ccc(Cl)cc1Cl
11 | 2.4 | S=c1[nH]ccn1Cc1cc(Cl)cc(Cl)c1
12 | 52.5 | O=[N+]([O-])c1ccc(Cn2cc[nH]c2=S)cc1
13 | 200 | FC(F)(F)c1ccc(Cn2cc[nH]c2=S)cc1
14 | 575 | Oc1ccccc1Cn1cc[nH]c1=S
15 | 0.0741 | Oc1c(F)cc(Cn2cc[nH]c2=S)cc1F
16 | 120 | Oc1ccc(Cn2cc[nH]c2=S)cc1C(F)(F)F
17 | 5.62 | Fc1cccc(Cn2cc[nH]c2=S)c1
18 | 174 | COc1ccc(Cn2cc[nH]c2=S)cc1C(F)(F)F
19 | 115 | S=c1[nH]ccn1Cc1ccc(Br)cc1
20 | 0.676 | Oc1c(Cl)cc(Cn2cc[nH]c2=S)cc1Cl
21 | 75.9 | Oc1cc(Cl)c(Cn2cc[nH]c2=S)c(Cl)c1
22 | 52.5 | S=c1[nH]ccn1Cc1cccc(Cl)c1Cl
23 | 28.2 | S=c1[nH]ccn1Cc1ccc(Cl)c(Cl)c1

Row | IC50 [µM] | Structure (SMILES)
24 | 355 | S=c1[nH]ccn1Cc1ccccc1Cl
25 | 46.8 | Fc1ccc(Cn2cc[nH]c2=S)cc1
26 | 12 | S=c1[nH]ccn1Cc1cccc(Cl)c1
27 | 74.1 | COc1ccc(Cn2cc[nH]c2=S)cc1F
28 | 12 | Oc1ccc(Cn2cc[nH]c2=S)cc1Br
29 | 1000 | Cc1cccc(C)c1Cn1cc[nH]c1=S
30 | 95.5 | S=c1[nH]ccn1Cc1ccc(Cl)cc1
31 | 708 | S=c1[nH]ccn1Cc1c(Cl)cccc1Cl
32 | 158 | COc1cccc(Cn2cc[nH]c2=S)c1
33 | 33.1 | S=c1[nH]ccn1Cc1ccccc1
34 | 155 | COc1cc(Cl)c(Cn2cc[nH]c2=S)c(Cl)c1
35 | 2.19 | Oc1ccc(Cn2cc[nH]c2=S)cc1O
36 | 355 | COc1ccc(Cn2cc[nH]c2=S)cc1[N+](=O)[O-]
37 | 148 | Oc1cccc(Cn2cc[nH]c2=S)c1
38 | 69.2 | COc1ccc(Cn2cc[nH]c2=S)cc1C
39 | 46.8 | COc1c(Cl)cc(Cn2cc[nH]c2=S)cc1Cl
40 | 204 | COc1ccc(Cn2cc[nH]c2=S)cc1
41 | 339 | COc1ccc(Cn2cc[nH]c2=S)cc1OC
42 | 61.7 | Oc1c(F)c(F)c(Cn2cc[nH]c2=S)c(F)c1F
43 | 102 | S=c1[nH]ccn1Cc1c(Cl)cc(Cl)cc1Cl
44 | 97.7 | S=c1[nH]ccn1Cc1cc(Cl)ccc1Cl
45 | 339 | Cc1ccccc1Cn1cc[nH]c1=S
